Legend:
glucagon = settings: rats, nembutal 50 mg/kg i.p., compound subcutaneously 3100 μg/kg, blood 15 minutes after injection; control 10.5 ± 2
Procedure: (§1) The effect on glucagon, growth hormone and insulin levels of the compound of Example 7 was determined by injecting rats weighing about 200-240 g first with nembutal intraperitoneally at a dose of 50 mg/kg then after 5 minutes injecting the rats subcutaneously with a solution of the compound of Example 7 in saline at a dose of 3.1 mg/kg per rat. Blood samples are taken 15 minutes after injection with the compound of Example 7. The glucagon, growth hormone and insulin levels were determined by radioimmunoassay.

growth hormone = assay: In vivo effect on growth hormone levels in nembutal-treated rats, radioimmunoassay; settings: nembutal 50 mg/kg i.p., compound subcutaneously 3100 μg/kg, blood 15 minutes after injection, control 296 ± 25
Procedure: as §1

insulin = assay: In vivo effect on insulin levels in nembutal-treated rats, radioimmunoassay; settings: nembutal 50 mg/kg i.p., compound subcutaneously 3100 μg/kg, blood 15 minutes after injection, control 171 ± 4
Procedure: as §1

Substance: L-Lysyl-L-lysyl-L-asparaginyl-L-phenylalanyl-L-phenylalanyl-L-tryptophyl-L-lysyl-L-threonyl-L-phenylalanyl-L-threonyl-L-seryl-L-aspartic acid cyclic (12β→1ε)-peptide, triacetate [Example 7]
- Glucagon (glucagon): 3.3 pg/mL
- GH (growth hormone): 227 ± 32 ng/kg
- Insulin (insulin): 182 ± 16 μU/ml

— US4000259A, “Cyclic dodecapeptide analogs of somatostatin and intermediates” (American Home Products Corporation, priority 1975, dated 1976)
